In patent US4603142A, “Cholesterol lowering method of use” (Wisconsin Alumni Research Foundation, priority 1984, dated 1986):

Assays:
Fatty Acid Synthetase [1] = experiment: In vitro fatty acid synthetase activity in isolated hepatocytes of chicken; assay type: cell-based; settings: incubation 15 minutes; for Fatty Acid Synthetase: means of two replicates
From the text: These observed effects on lipogensis and cholesterogenesis could be attributed to the chemical constituents of HPBF, but clearly could not be attributed to the water insoluble plant fibers because they were not present in the latter feeding trials. Moreover, these effects were also obtained in vitro using isolated hepatocytes from chickens and rats. […] Proc. 42:1973 (Abstr.)]. Conditions for the in vitro evaluation of the solvent extracts have been described [Qureshi AA et al. (1983): Inhibition of cholesterol and fatty acid biosynthesis in liver enzymes and chicken hepatocytes by polar fractions of garlic, Lipids 18:343-348].
(§1) Cholesterol inhibitor I was re-chromatographed by HPLC and the UV absorption spectrum obtained. Maximum absorption occurred at 292 nm. This purified fraction was used for high resolution mass spectrometric analysis. Several scans were made using ionization temperatures from 90-180 degrees Centigrade to increase the possibility of detecting impurities. The high resolution mass spectrometric analysis and measurements of different peaks gave a molecular ion peak at m/e 424 and main peaks at m/e 385, 205 and 165 corresponding to C29 H44 O2 (molecular formula) C25 H36 O2, C13 H17 O2 and C10 H13 O2 moieties, respectively, which are characteristic fragmentation moieties for d-alpha-tocotrienol. Lemon grass oil is a rich source of d-alpha-tocotrienol. This product and cholesterol inhibitor I at 20 ppm were compared with the petroleum ether soluble fraction of HPBF (20% equivalent HPBF) in a group of older male White Leghorn chickens (Table 3). The results shown on Table 3 confirm those previously recorded for petroleum ether solubles of HPBF and cholestrol inhibitor I. In a final experiment, the effects of cholestrol inhibitor I and lemon grass oil on hepatocyte HMG Co-A reductase and FAS activities were tested. Both components tested in the concentration range 5-100 microgram/ml, produced a concentration-dependent suppression of HMG Co-A reductase and concentration-dependent enhancement of FAS activity (Table 4).
^1 Tenweek-old female chickens were fed standard cornsoy diet. They
were fasted for 48 hrs. and refed 72 hrs. prior to the preparation of
^2 Incubation period was 15 minutes. Values represent means of two
replicates within incubation set.
^4 nmoles of NADPH oxidized per minute per mg of cytosolic fraction.

Fatty Acid Synthetase [2] = experiment: Hepatic fatty acid synthetase activity in 3-week-old broiler male chickens fed supplemented corn diet; assay type: in vivo, chicken; settings: liver; for Fatty Acid Synthetase: mean ± SD, N = 9
From the text: (§2) These responses were attributed to the presence in the small grains of relatively high concentrations of beta-D-glucans and pentosans. A long-standing interest in lipid metabolism prompted us to examine certain lipogenic and cholesterolgenic enzymes in the tissues of these birds. Methods used for handling blood samples, preparing subcellular fractions of liver and assay procedures for beta-hydroxy-beta-methylglutaryl coenzyme A (HMG Co-A) reductase, fatty acid synthetase (FAS), plasma cholesterol and triglycerides and the statistical treatment of the data have been described [Qureshi AA et al. (1980): Regulation of lipid metabolism in chicken livers by dietary cereals, J Nutr 110:388-393].
(§3) For large scale preparation of these compounds, 10 grams of the petroleum ether soluble fraction of HPBF were dissolved in 10 ml petroleum ether and applied to a 90×3.5 cm silicic acid column (Bio-Silica, 100-200 mesh). The column was washed with 2,500 ml petroleum ether followed by stepwise elution with increasing amounts of ether in petroleum ether. Fraction 8 of the column corresponded to HPLC fraction 5. A concentration-dependent suppression of HMG Co-A reductase activity and enhancement of FAS activity was noted within this range. Serum total and LDL cholesterol levels also fell in a dose-dependent response. […] In a companion experiment, using the same control birds, the effect of cholesterol inhibitor I at 5 ppm is compared to the effect of the petroleum ether solubles of HPBF at 20% equivalent on weight gain, HMG Co-A reductase and FAS activities, serum cholesterol and serum triglyceride levels (Table 2). […] Serum triglyceride levels reflected the influence of the diet on FAS activity. […] Cholesterol inhibitor I was a more powerful suppressor of LDL cholesterol (Table 2).
(§4) ^1 Feeding period was 3 weeks; Time of killing was 0800; Data
(§5) expressed as mean ± SD; N = 9 chickens per group; HMGCoA reductase =
^3 nmoles of NADPH oxidized per minute per mg of cytosolic protein.

[3] = Serum lipids in 13-week-old WLH male chickens; assay type: in vivo, chicken; settings: 20 ppm in corn diet, fed four weeks
From the text: as §2, §1
^1 Feeding period was four weeks; Time of killing was 0800; Data
expressed as mean ± SD; N = 8 chickens per group; HMGCoA reductase =

[4] = Serum lipids in 3-week-old broiler male chickens fed supplemented corn diet; assay type: in vivo, chicken; settings: for Concentration in Serum Chol-LDL, percentage of control / Concentration in Serum Total Cholesterol, percentage of control / Concentration in Serum Chol-LDL / Concentration in Serum HDL-Chol. / Concentration in Serum Total Cholesterol: fed 3 weeks
From the text: as §2, §3, §4, §5

[5] = Animal tests of pure d-α-tocotrienol: blood cholesterol and side effects; assay type: in vivo; settings: test animals
From the text: We have isolated pure d-α-tocotrienol from barley. […] In addition to being extractable from natural sources, including barley and lemon grass oil, d-α-tocotrienol can be synthesized using available technology similar to that which has been used in the synthesis of Vitamin E and more recently as described by S. Urano et al. (J. Chem. Pharm. Bull. 31, 4341 (1983)).

[6] = 2.5 ppm in corn diet, fed 3 weeks
[7] = 5.0 ppm in corn diet, fed 3 weeks
[8] = 10.0 ppm in corn diet, fed 3 weeks
[9] = 15.0 ppm in corn diet, fed 3 weeks
[10] = 20.0 ppm in corn diet, fed 3 weeks
[11] = 2.5 ppm in corn diet, mean ± SD, N = 9
[12] = 5.0 ppm in corn diet, mean ± SD, N = 9
[13] = 10.0 ppm in corn diet, mean ± SD, N = 9
[14] = 15.0 ppm in corn diet, mean ± SD, N = 9
[15] = 20.0 ppm in corn diet, mean ± SD, N = 9
[16] = corn diet + 5 ppm (Table 2), mean ± SD, N = 9

With CC(C)=CCC/C(C)=C/CC/C(C)=C/CC[C@]1(C)CCc2c(C)c(O)c(C)c(C)c2O1 [Cholesterol inhibitor I, 2,5,7,8-tetramethyl-2 (4,8, 12-trimethyltrideca-3,7, 11-trienyl)chroman-6-ol] the “Fatty Acid Synthetase, percentage of control” value (Fatty Acid Synthetase [1]; 5 μg/ml) was 122 Percentage of respective contr, the “Fatty Acid Synthetase” value (Fatty Acid Synthetase [1]; 5 μg/ml) was 88 nmoles of NADPH oxidized per m and the “Fatty Acid Synthetase, percentage of control” value (Fatty Acid Synthetase [1]; 10 μg/ml) was 135 Percentage of respective contr. For the same molecule, the “Fatty Acid Synthetase” value (Fatty Acid Synthetase [1]; 10 μg/ml) was 97 nmoles of NADPH oxidized per m, the “Fatty Acid Synthetase, percentage of control” value (Fatty Acid Synthetase [1]; 15 μg/ml) was 156 Percentage of respective contr and the “Fatty Acid Synthetase” value (Fatty Acid Synthetase [1]; 15 μg/ml) was 112 nmoles of NADPH oxidized per m. For the same molecule, the “Fatty Acid Synthetase, percentage of control” value (Fatty Acid Synthetase [1]; 20 μg/ml) was 175 Percentage of respective contr, the “Fatty Acid Synthetase” value (Fatty Acid Synthetase [1]; 20 μg/ml) was 126 nmoles of NADPH oxidized per m and the “Fatty Acid Synthetase, percentage of control” value (Fatty Acid Synthetase [1]; 25 μg/ml) was 188 Percentage of respective contr. The “Fatty Acid Synthetase” value (Fatty Acid Synthetase [1]; 25 μg/ml) was 135 nmoles of NADPH oxidized per m, the “Fatty Acid Synthetase, percentage of control” value (Fatty Acid Synthetase [1]; 50 μg/ml) was 188 Percentage of respective contr and the “Fatty Acid Synthetase” value (Fatty Acid Synthetase [1]; 50 μg/ml) was 148 nmoles of NADPH oxidized per m. The “Fatty Acid Synthetase, percentage of control” value (Fatty Acid Synthetase [1]; 100 μg/ml) was 214 Percentage of respective contr, the “Fatty Acid Synthetase” value (Fatty Acid Synthetase [1]; 100 μg/ml) was 154 nmoles of NADPH oxidized per m and the “Fatty Acid Synthetase, percentage of control” value (Fatty Acid Synthetase [2]; [6]) was 118 Percentage of respective contr. The “Fatty Acid Synthetase” value (Fatty Acid Synthetase [2]; [6]) was 190 ± 12 nmoles of NADPH oxidized per m, the “Fatty Acid Synthetase, percentage of control” value (Fatty Acid Synthetase [2]; [7]) was 120 Percentage of respective contr and the “Fatty Acid Synthetase” value (Fatty Acid Synthetase [2]; [7]) was 202 ± 10 nmoles of NADPH oxidized per m. The “Fatty Acid Synthetase, percentage of control” value (Fatty Acid Synthetase [2]; [8]) was 125 Percentage of respective contr, the “Fatty Acid Synthetase” value (Fatty Acid Synthetase [2]; [8]) was 210 ± 15 nmoles of NADPH oxidized per m and the “Fatty Acid Synthetase, percentage of control” value (Fatty Acid Synthetase [2]; [9]) was 130 Percentage of respective contr. For the same molecule, the “Fatty Acid Synthetase” value (Fatty Acid Synthetase [2]; [9]) was 218 ± 17 nmoles of NADPH oxidized per m, the “Fatty Acid Synthetase, percentage of control” value (Fatty Acid Synthetase [2]; [10]) was 140 Percentage of respective contr and the “Fatty Acid Synthetase” value (Fatty Acid Synthetase [2]; [10]) was 235 ± 18 nmoles of NADPH oxidized per m. The “Fatty Acid Synthetase” value (Fatty Acid Synthetase [2]; corn diet + 5 ppm (Table 2)) was 215 ± 18 nmoles of NADPH oxidized per m, the “Concentration in Serum LDL-Chol., percentage of control” value [3] was 66 Percentage of respective contr and the “Concentration in Serum HDL-Chol.” value ([3]; mean ± SD, N = 8) was 58 ± 3 mg/100 ml. The “Concentration in Serum LDL-Chol.” value ([3]; mean ± SD, N = 8) was 44 ± 3 mg/100 ml, the “Concentration in Serum Total Cholesterol” value ([3]; mean ± SD, N = 8) was 103 mg/100 ml and the “Concentration in Serum Chol-LDL, percentage of control” value ([4]; 2.5 ppm in corn diet) was 90 Percentage of respective contr. For the same molecule, the “Concentration in Serum Total Cholesterol, percentage of control” value ([4]; 2.5 ppm in corn diet) was 94 Percentage of respective contr, the “Concentration in Serum Chol-LDL” value [4, 11] was 73 ± 5 mg/100 ml and the “Concentration in Serum HDL-Chol.” value [4, 11] was 54 ± 6 mg/100 ml. For the same molecule, the “Concentration in Serum Total Cholesterol” value [4, 11] was 152 ± 10 mg/100 ml, the “Level of cholesterol transported in the high-density lipoprotein fraction (HDL)” value ([4]; 2.5 to 20 ppm, Table 1) was “not influenced” and the “Concentration in Serum Chol-LDL, percentage of control” value ([4]; 5.0 ppm in corn diet) was 74 Percentage of respective contr. The “Concentration in Serum Total Cholesterol, percentage of control” value ([4]; 5.0 ppm in corn diet) was 89 Percentage of respective contr, the “Concentration in Serum Chol-LDL” value [4, 12] was 60 ± 4 mg/100 ml and the “Concentration in Serum HDL-Chol.” value [4, 12] was 51 ± 4 mg/100 ml. For the same molecule, the “Concentration in Serum Total Cholesterol” value [4, 12] was 144 ± 8 mg/100 ml, the “Concentration in Serum Chol-LDL, percentage of control” value ([4]; 10.0 ppm in corn diet) was 67 Percentage of respective contr and the “Concentration in Serum Total Cholesterol, percentage of control” value ([4]; 10.0 ppm in corn diet) was 78 Percentage of respective contr. The “Concentration in Serum Chol-LDL” value [4, 13] was 54 ± 4 mg/100 ml, the “Concentration in Serum HDL-Chol.” value [4, 13] was 52 ± 5 mg/100 ml and the “Concentration in Serum Total Cholesterol” value [4, 13] was 125 ± 7 mg/100 ml. For the same molecule, the “Concentration in Serum Chol-LDL, percentage of control” value ([4]; 15.0 ppm in corn diet) was 64 Percentage of respective contr, the “Concentration in Serum Total Cholesterol, percentage of control” value ([4]; 15.0 ppm in corn diet) was 76 Percentage of respective contr and the “Concentration in Serum Chol-LDL” value [4, 14] was 52 ± 5 mg/100 ml. The “Concentration in Serum HDL-Chol.” value [4, 14] was 50 ± 6 mg/100 ml, the “Concentration in Serum Total Cholesterol” value [4, 14] was 122 ± 6 mg/100 ml and the “Concentration in Serum Chol-LDL, percentage of control” value ([4]; 20.0 ppm in corn diet) was 47 Percentage of respective contr. The “Concentration in Serum Total Cholesterol, percentage of control” value ([4]; 20.0 ppm in corn diet) was 65 Percentage of respective contr, the “Concentration in Serum Chol-LDL” value [4, 15] was 38 ± 5 mg/100 ml and the “Concentration in Serum HDL-Chol.” value [4, 15] was 48 ± 5 mg/100 ml. For the same molecule, the “Concentration in Serum Total Cholesterol” value [4, 15] was 105 ± 8 mg/100 ml, the “Serum Cholesterol HDL-Chol.” value [4, 16] was 48 ± 5 mg/dL and the “Serum Cholesterol LDL-Chol.” value [4, 16] was 38 ± 5 mg/dL. The “Serum Cholesterol Total-Chol.” value [4, 16] was 105 ± 11 mg/dL, the “Serum Triglycerides” value [4, 16] was 174 ± 6 mg/dL and the “Effect on high density lipoprotein cholesterol levels” value [5] was “no significant effect”. The Side effects [5] was “no undesirable side effects” and the “Effect on total and low density lipoprotein cholesterol” value ([5]; even in low concentrations) was “lower concentrations of total and low density lipoprotein cholesterol”.
